Source: PubChem BioAssay AID328 (DTP/NCI, 2004)
Values joined by “and” are separate entries in the source; they are usually repeats but may differ in a detail not shown here. Equal entries are not always repeated. Toxic doses and inconclusive results are not listed.

Tested on: BDF1 mice, P388 leukemia ip, median survival T/C
Test: NCI In Vivo Anticancer Drug Screen. Data for tumor model P388 Leukemia (intraperitoneal) in B6D2F1 (BDF1) mice
Details: endpoint: median survival time, higher = longer survival
Summary of the method: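 Transplantable tumour in mice; compound vs vehicle dosing; survival scored; ratio of treated to control reported.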

[1] = dose: 50.0 mg/kg/injection, schedule: Q01DX009 (ip), vehicle: saline
[2] = dose: 100.0 mg/kg/injection, schedule: Q01DX009 (ip), vehicle: saline
[3] = dose: 200.0 mg/kg/injection, schedule: Q01DX009 (ip), vehicle: saline
[4] = dose: 50.0 mg/kg/injection, schedule: Q01DX009 (ip), vehicle: saline with Tween-80
[5] = dose: 200.0 mg/kg/injection, schedule: Q01DX009 (ip), vehicle: saline with Tween-80
[6] = dose: 75.0 mg/kg/injection, schedule: Q01DX009 (ip), vehicle: Klucel (hydroxypropylcellulose) (HPC)
[7] = dose: 150.0 mg/kg/injection, schedule: Q01DX009 (ip), vehicle: Klucel (hydroxypropylcellulose) (HPC)
[8] = dose: 300.0 mg/kg/injection, schedule: Q01DX009 (ip), vehicle: Klucel (hydroxypropylcellulose) (HPC)
[9] = dose: 100.0 mg/kg/injection, schedule: Q01DX009 (ip), vehicle: saline with Tween-80
[10] = dose: 400.0 mg/kg/injection, schedule: Q01DX009 (ip), vehicle: saline with Tween-80
[11] = dose: 100.0 mg/kg/injection, schedule: Q04DX003 (ip), vehicle: saline with Tween-80
[12] = dose: 200.0 mg/kg/injection, schedule: Q04DX003 (ip), vehicle: saline with Tween-80
[13] = dose: 400.0 mg/kg/injection, schedule: Q04DX003 (ip), vehicle: saline with Tween-80
[14] = dose: 100.0 mg/kg/injection, schedule: Q01DX009 (ip), vehicle: Klucel (hydroxypropylcellulose) (HPC)
[15] = dose: 100.0 mg/kg/injection, schedule: Q04DX003 (ip), vehicle: Klucel (hydroxypropylcellulose) (HPC)
[16] = dose: 200.0 mg/kg/injection, schedule: Q01DX009 (ip), vehicle: Klucel (hydroxypropylcellulose) (HPC)
[17] = dose: 200.0 mg/kg/injection, schedule: Q04DX003 (ip), vehicle: Klucel (hydroxypropylcellulose) (HPC)
[18] = dose: 400.0 mg/kg/injection, schedule: Q04DX003 (ip), vehicle: Klucel (hydroxypropylcellulose) (HPC)

## CCOC(=O)C(=O)C[n+]1cc2ccccc2cc1/C=N/O
dose: 50.0 mg/kg/injection, schedule: Q01DX001 (ip), vehicle: saline
  T/C: 100 % of control
dose: 100.0 mg/kg/injection, schedule: Q01DX001 (ip), vehicle: saline
  T/C: 100 % of control
dose: 200.0 mg/kg/injection, schedule: Q01DX001 (ip), vehicle: saline
  T/C: 100 % of control

## C=CCOCC1CO1 (centres undefined)
dose: 12.5 mg/kg/injection, schedule: Q01DX009 (ip), vehicle: saline
  T/C: 99 % of control
dose: 25.0 mg/kg/injection, schedule: Q01DX009 (ip), vehicle: saline
  T/C: 106 % of control
[1]
  T/C: 100 % of control
[2]
  T/C: 109 % of control
[3]
  T/C: 117 % of control

## O=C(c1ccccc1)C12CC3CC(CC(C3)C1)C2
dose: 6.25 mg/kg/injection, schedule: Q01DX009 (ip), vehicle: saline with Tween-80
  T/C: 90 % of control and 98 % of control
dose: 12.5 mg/kg/injection, schedule: Q01DX009 (ip), vehicle: saline with Tween-80
  T/C: 90 % of control
dose: 25.0 mg/kg/injection, schedule: Q01DX009 (ip), vehicle: saline with Tween-80
  T/C: 90 % of control and 99 % of control
[4]
  T/C: 97 % of control
[5]
  T/C: 107 % of control

## O=c1[nH]c(=O)c2nccnc2[nH]1
dose: 12.5 mg/kg/injection, schedule: Q01DX009 (ip), vehicle: water
  T/C: 86 % of control
dose: 12.5 mg/kg/injection, schedule: Q04DX003 (ip), vehicle: water
  T/C: 266 % of control and 120 % of control
dose: 25.0 mg/kg/injection, schedule: Q01DX009 (ip), vehicle: water
  T/C: 111 % of control
dose: 25.0 mg/kg/injection, schedule: Q04DX003 (ip), vehicle: water
  T/C: 270 % of control and 113 % of control
dose: 50.0 mg/kg/injection, schedule: Q01DX009 (ip), vehicle: water
  T/C: 92 % of control
dose: 50.0 mg/kg/injection, schedule: Q04DX003 (ip), vehicle: water
  T/C: 266 % of control and 111 % of control
dose: 100.0 mg/kg/injection, schedule: Q01DX009 (ip), vehicle: water
  T/C: 104 % of control
dose: 100.0 mg/kg/injection, schedule: Q04DX003 (ip), vehicle: water
  T/C: 268 % of control and 102 % of control
dose: 200.0 mg/kg/injection, schedule: Q04DX003 (ip), vehicle: water
  T/C: 95 % of control

## CCOc1cccc(OCC)c1C
[6]
  T/C: 100 % of control
[7]
  T/C: 100 % of control
[8]
  T/C: 100 % of control

## CCCC(CCC)(C(N)=O)C(=O)O
dose: 50.0 mg/kg/injection, schedule: Q01DX001 (ip), vehicle: Klucel (hydroxypropylcellulose) (HPC)
  T/C: 94 % of control
dose: 100.0 mg/kg/injection, schedule: Q01DX001 (ip), vehicle: Klucel (hydroxypropylcellulose) (HPC)
  T/C: 100 % of control
dose: 200.0 mg/kg/injection, schedule: Q01DX001 (ip), vehicle: Klucel (hydroxypropylcellulose) (HPC)
  T/C: 122 % of control

## CCCN(CCC)CC(O)c1cc(C(F)(F)F)nc2c(C(F)(F)F)cccc12 (centres undefined)
[4]
  T/C: 103 % of control
[9]
  T/C: 100 % of control
[5]
  T/C: 97 % of control

## COC(=O)[C@@]12OC[C@]34[C@H]([C@@H](O)[C@@H]1O)[C@@]1(C)CC(=O)C(O)=C(C)[C@@H]1C[C@H]3OC(=O)[C@H](OC(=O)c1ccccc1)[C@@H]24
dose: 31.0 micrograms/kg/injection, schedule: Q01DX009 (ip), vehicle: saline + alcohol
  T/C: 86 % of control and 90 % of control and 100 % of control
dose: 61.0 micrograms/kg/injection, schedule: Q01DX009 (ip), vehicle: saline + alcohol
  T/C: 100 % of control
dose: 62.0 micrograms/kg/injection, schedule: Q01DX009 (ip), vehicle: saline + alcohol
  T/C: 113 % of control
dose: 125.0 micrograms/kg/injection, schedule: Q01DX009 (ip), vehicle: saline + alcohol
  T/C: 95 % of control and 109 % of control
dose: 250.0 micrograms/kg/injection, schedule: Q01DX009 (ip), vehicle: saline + alcohol
  T/C: 100 % of control and 109 % of control
dose: 500.0 micrograms/kg/injection, schedule: Q01DX009 (ip), vehicle: saline + alcohol
  T/C: 100 % of control and 113 % of control
dose: 1000.0 micrograms/kg/injection, schedule: Q01DX009 (ip), vehicle: saline + alcohol
  T/C: 100 % of control and 118 % of control
dose: 4000.0 micrograms/kg/injection, schedule: Q01DX009 (ip), vehicle: saline + alcohol
  T/C: 109 % of control

## CCCCCCCCCC(=O)NN
dose: 50.0 mg/kg/injection, schedule: Q01DX001 (ip), vehicle: saline sonified
  T/C: 95 % of control
dose: 100.0 mg/kg/injection, schedule: Q01DX001 (ip), vehicle: saline sonified
  T/C: 104 % of control
dose: 200.0 mg/kg/injection, schedule: Q01DX001 (ip), vehicle: saline sonified
  T/C: 104 % of control

## COc1cccc(CCCC(=O)CS(C)=O)c1 (centres undefined)
[1]
  T/C: 98 % of control
[2]
  T/C: 102 % of control
[3]
  T/C: 109 % of control

## CNC[C@@H](O)c1ccc(O)c(O)c1
dose: 0.25 mg/kg/injection, schedule: Q04DX003 (ip), vehicle: saline
  T/C: 110 % of control
dose: 0.5 mg/kg/injection, schedule: Q01DX009 (ip), vehicle: saline
  T/C: 91 % of control and 109 % of control
dose: 0.5 mg/kg/injection, schedule: Q04DX003 (ip), vehicle: saline
  T/C: 110 % of control
dose: 1.0 mg/kg/injection, schedule: Q01DX001 (ip), vehicle: saline
  T/C: 95 % of control
dose: 1.0 mg/kg/injection, schedule: Q01DX009 (ip), vehicle: saline
  T/C: 100 % of control
dose: 1.0 mg/kg/injection, schedule: Q04DX003 (ip), vehicle: saline
  T/C: 105 % of control
dose: 2.0 mg/kg/injection, schedule: Q01DX001 (ip), vehicle: saline
  T/C: 104 % of control
dose: 2.0 mg/kg/injection, schedule: Q01DX009 (ip), vehicle: saline
  T/C: 91 % of control and 109 % of control
dose: 2.0 mg/kg/injection, schedule: Q04DX003 (ip), vehicle: saline
  T/C: 86 % of control
dose: 4.0 mg/kg/injection, schedule: Q01DX009 (ip), vehicle: saline
  T/C: 95 % of control and 100 % of control
dose: 9.0 mg/kg/injection, schedule: Q01DX009 (ip), vehicle: saline
  T/C: 95 % of control

## COC(=O)C1CC2C(CCC3C(C)(C(=O)OC)CCCC23C)C(=O)C1(O)C(C)C (centres undefined)
[9]
  T/C: 100 % of control
[5]
  T/C: 100 % of control
[10]
  T/C: 90 % of control

## CCOC(CNC(=O)NC1CCCCC1)OCC
[11]
  T/C: 90 % of control
[12]
  T/C: 90 % of control
[13]
  T/C: 90 % of control

## CCn1c(O)c(N=NC(=S)NC)c2ccccc21
dose: 37.5 mg/kg/injection, schedule: Q01DX009 (ip), vehicle: saline with Tween-80
  T/C: 86 % of control

## O=[N+]([O-])c1cccnc1Cl
dose: 50.0 mg/kg/injection, schedule: Q01DX009 (ip), vehicle: Klucel (hydroxypropylcellulose) (HPC)
  T/C: 91 % of control
[14]
  T/C: 100 % of control
[15]
  T/C: 104 % of control
[16]
  T/C: 91 % of control
[17]
  T/C: 100 % of control

## CC(C)(O)c1cccc(C(=O)O)c1Sc1ccccc1
dose: 100.0 mg/kg/injection, schedule: Q01DX001 (ip), vehicle: saline with Tween-80
  T/C: 100 % of control
dose: 200.0 mg/kg/injection, schedule: Q01DX001 (ip), vehicle: saline with Tween-80
  T/C: 95 % of control
dose: 400.0 mg/kg/injection, schedule: Q01DX001 (ip), vehicle: saline with Tween-80
  T/C: 101 % of control

## Nc1ccc(S(=O)(=O)Nc2ccc(I)cc2)cc1
[14]
  T/C: 90 % of control
[15]
  T/C: 123 % of control
[16]
  T/C: 104 % of control
[17]
  T/C: 96 % of control
dose: 400.0 mg/kg/injection, schedule: Q01DX009 (ip), vehicle: Klucel (hydroxypropylcellulose) (HPC)
  T/C: 100 % of control
[18]
  T/C: 92 % of control

## CCOC(=O)COc1ccc(C=O)cc1
[15]
  T/C: 103 % of control
[18]
  T/C: 92 % of control

## O=C(CSc1cc(-c2ccc(Cl)cc2)s[s+]1)c1ccccc1
[4]
  T/C: 101 % of control
[9]
  T/C: 109 % of control
[11]
  T/C: 114 % of control
[5]
  T/C: 113 % of control
[12]
  T/C: 114 % of control
[10]
  T/C: 113 % of control
[13]
  T/C: 93 % of control

## c1ccc(CSSCc2ccccc2)cc1
[6]
  T/C: 104 % of control
[14]
  T/C: 90 % of control
[15]
  T/C: 100 % of control
[7]
  T/C: 100 % of control
[16]
  T/C: 86 % of control
[17]
  T/C: 95 % of control
[8]
  T/C: 90 % of control
[18]
  T/C: 95 % of control
